Results as given in ChEMBL document CHEMBL4699491, “Identification of TNO155, an Allosteric SHP2 Inhibitor for the Treatment of Cancer” (J Med Chem, 2020).
Values after ≈ are worked out from the molar mass of the structure shown.

Assays:
physchem [1] = conditions: octanol/water
Description: Distribution coefficient, logD of the compound

[2] = target: T1, Tyrosine-protein phosphatase non-receptor type 11 (Homo sapiens, UniProt Q06124)
T1 sequence (Q06124 whole entry): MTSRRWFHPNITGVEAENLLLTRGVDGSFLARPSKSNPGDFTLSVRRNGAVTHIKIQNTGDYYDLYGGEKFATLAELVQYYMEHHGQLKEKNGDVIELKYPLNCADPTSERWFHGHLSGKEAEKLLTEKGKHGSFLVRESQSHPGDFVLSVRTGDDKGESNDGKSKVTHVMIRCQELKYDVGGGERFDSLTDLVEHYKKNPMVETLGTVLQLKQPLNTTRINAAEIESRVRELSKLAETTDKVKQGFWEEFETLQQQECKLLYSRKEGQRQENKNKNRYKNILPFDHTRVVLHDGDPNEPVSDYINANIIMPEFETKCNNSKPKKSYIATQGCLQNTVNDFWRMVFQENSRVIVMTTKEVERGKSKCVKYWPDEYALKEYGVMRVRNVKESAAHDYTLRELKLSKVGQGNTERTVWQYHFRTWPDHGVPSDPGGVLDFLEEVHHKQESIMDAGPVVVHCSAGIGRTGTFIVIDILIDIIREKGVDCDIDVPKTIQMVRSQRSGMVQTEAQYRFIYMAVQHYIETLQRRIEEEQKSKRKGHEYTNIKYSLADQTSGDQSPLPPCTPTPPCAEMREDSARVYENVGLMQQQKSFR
Description: Allosteric inhibition of human SHP2 in human KYSE-520 cells assessed as reduction in ERK1/2 phosphorylation by fluorescence based assay

KYSE-520 cell line = assay: Antiproliferative activity against human KYSE-520 cells; type: functional, cell-based
physchem [3] = conditions: octanol/water; remark: listed apart in the source
Description: Lipophilicity, logP of the compound

physchem [4] = conditions: aqueous, pH 6.8
Description: Aqueous solubility of the compound at pH 6.8

[5] = target: Voltage-gated inwardly rectifying potassium channel KCNH2 (Homo sapiens, UniProt Q12809)
Sequence of Voltage-gated inwardly rectifying potassium channel KCNH2 (Q12809 whole entry): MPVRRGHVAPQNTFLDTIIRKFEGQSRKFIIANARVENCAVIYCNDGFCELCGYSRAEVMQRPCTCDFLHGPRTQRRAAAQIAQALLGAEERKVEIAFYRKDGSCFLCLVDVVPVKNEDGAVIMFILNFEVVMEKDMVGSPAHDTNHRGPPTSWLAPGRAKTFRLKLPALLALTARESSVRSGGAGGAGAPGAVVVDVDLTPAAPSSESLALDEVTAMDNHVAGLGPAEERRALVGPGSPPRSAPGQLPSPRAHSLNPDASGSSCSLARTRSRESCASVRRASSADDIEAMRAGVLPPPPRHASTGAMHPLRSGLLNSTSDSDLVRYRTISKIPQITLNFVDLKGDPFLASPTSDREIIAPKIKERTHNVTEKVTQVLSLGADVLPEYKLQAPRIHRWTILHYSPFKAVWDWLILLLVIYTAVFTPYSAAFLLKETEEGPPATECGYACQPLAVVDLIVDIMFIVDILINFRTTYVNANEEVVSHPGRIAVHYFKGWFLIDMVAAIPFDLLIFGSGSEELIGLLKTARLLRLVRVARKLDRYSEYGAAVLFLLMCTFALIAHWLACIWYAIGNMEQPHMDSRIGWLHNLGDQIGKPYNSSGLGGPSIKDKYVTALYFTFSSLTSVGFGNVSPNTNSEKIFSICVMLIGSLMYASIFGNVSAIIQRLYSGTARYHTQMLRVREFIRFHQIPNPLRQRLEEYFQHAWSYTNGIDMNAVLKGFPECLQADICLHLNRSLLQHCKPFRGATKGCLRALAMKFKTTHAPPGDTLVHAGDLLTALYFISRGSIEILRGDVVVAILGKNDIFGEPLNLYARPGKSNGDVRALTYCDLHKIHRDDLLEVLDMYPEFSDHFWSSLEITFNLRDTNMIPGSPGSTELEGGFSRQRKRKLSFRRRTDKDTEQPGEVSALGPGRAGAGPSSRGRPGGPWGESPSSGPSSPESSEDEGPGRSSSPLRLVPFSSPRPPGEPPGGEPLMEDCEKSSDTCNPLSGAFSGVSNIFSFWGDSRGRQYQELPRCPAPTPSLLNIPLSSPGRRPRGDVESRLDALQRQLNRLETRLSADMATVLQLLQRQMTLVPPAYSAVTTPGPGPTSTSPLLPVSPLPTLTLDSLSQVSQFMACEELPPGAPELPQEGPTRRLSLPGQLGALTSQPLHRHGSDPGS
Description: Inhibition of human ERG by Q-patch assay

MIA PaCa-2 = assay: cells; conditions: Homo sapiens
Description: Antiproliferative activity against human MIA PaCa-2 cells

[6] = octanol/water
Description: Lipophilicity, logP of the compound

[7] = Toxicity in mouse 3T3 cells under irradiation by NRU phototoxicity test; type: cell-based
[8] = target: T2, Tyrosine-protein phosphatase non-receptor type 11 (Homo sapiens) (UniProt Q06124); conditions: filed as negative allosteric modulator
T2 sequence (whole entry): T1 sequence (Q06124 whole entry)

[9] = target: T1, Tyrosine-protein phosphatase non-receptor type 11; assay: Allosteric inhibition of 6x-histidine tagged human SHP2 (Met1-L525 residues) expressed in Escherichia coli BL21 Star (DE3) using IRS1_pY1172(dPEG8)[…] incubated for 30 mins by fluorescence based DIFMUP assay
[10] = Terminal half life in beagle dog at 0.2 mg/kg, iv by LC-MS/MS analysis; type: ADME, organism-based, Canis lupus familiaris; conditions: in vivo, read-out: beta t1/2 (converted)
[11] = Protein binding in beagle dog plasma; type: ADME, cell-free, Canis lupus familiaris; conditions: read-out: PPB (converted)
[12] = Toxicity in NU/NU mouse xenografted with human KYSE-520 cells assessed as induction of body weight loss eat 2.5 to 20 mg/kg, po BID for 2 weeks; type: organism-based; conditions: in vivo, 336 h, dose 2.5-20 mg/kg
[13] = Oral bioavailability in Sprague-Dawley rat at 5 mg/kg by LC-MS/MS analysis; type: ADME, organism-based; conditions: in vivo
[14] = Oral bioavailability in cynomolgus monkey at 1 mg/kg by LC-MS/MS analysis; type: ADME, organism-based, Macaca fascicularis; conditions: in vivo
[15] = Terminal half life in C57BL/6 mouse at 1 mg/kg, iv by LC-MS/MS analysis; type: ADME, organism-based; conditions: in vivo, read-out: beta t1/2 (converted)
[16] = Oral bioavailability in beagle dog at 1 mg/kg by LC-MS/MS analysis; type: ADME, organism-based, Canis lupus familiaris; conditions: in vivo
[17] = Oral bioavailability in C57BL/6 mouse at 5 mg/kg by LC-MS/MS analysis; type: ADME, organism-based; conditions: in vivo
[18] = Clearance in cynomolgus monkey at 0.3 mg/kg, iv by LC-MS/MS analysis; type: ADME, organism-based, Macaca fascicularis; conditions: in vivo
[19] = AUC/dose in beagle dog at 1 mg/kg, po by LC-MS/MS analysis; type: ADME, organism-based, Canis lupus familiaris; conditions: in vivo
[20] = AUC/dose in C57BL/6 mouse at 5 mg/kg, po by LC-MS/MS analysis; type: ADME, organism-based; conditions: in vivo
[21] = Protein binding in cynomolgus monkey plasma; type: ADME, cell-free, Macaca fascicularis; conditions: read-out: PPB (converted)
[22] = Cmax/dose in C57BL/6 mouse at 5 mg/kg, po by LC-MS/MS analysis; type: ADME, organism-based; conditions: in vivo
[23] = Cmax/dose in Sprague-Dawley rat at 5 mg/kg, po by LC-MS/MS analysis; type: ADME, organism-based; conditions: in vivo
[24] = Terminal half life in Sprague-Dawley rat at 1 mg/kg, iv by LC-MS/MS analysis; type: ADME, organism-based; conditions: in vivo, read-out: beta t1/2 (converted)
[25] = Clearance in Sprague-Dawley rat at 1 mg/kg, iv by LC-MS/MS analysis; type: ADME, organism-based; conditions: in vivo
[26] = Cmax/dose in beagle dog at 1 mg/kg, po by LC-MS/MS analysis; type: ADME, organism-based, Canis lupus familiaris; conditions: in vivo
[27] = Volume of distribution at steady state in cynomolgus monkey at 0.3 mg/kg, iv by LC-MS/MS analysis; type: ADME, organism-based, Macaca fascicularis; conditions: in vivo, read-out: Vdss
[28] = AUC/dose in beagle dog at 0.2 mg/kg, iv by LC-MS/MS analysis; type: ADME, organism-based, Canis lupus familiaris; conditions: in vivo
[29] = Tmax in cynomolgus monkey at 1 mg/kg, po by LC-MS/MS analysis; type: ADME, organism-based, Macaca fascicularis; conditions: in vivo
[30] = Clearance in beagle dog at 0.2 mg/kg, iv by LC-MS/MS analysis; type: ADME, organism-based, Canis lupus familiaris; conditions: in vivo
[31] = Tmax in Sprague-Dawley rat at 5 mg/kg, po by LC-MS/MS analysis; type: ADME, organism-based; conditions: in vivo
[32] = AUC/dose in Sprague-Dawley rat at 1 mg/kg, iv by LC-MS/MS analysis; type: ADME, organism-based; conditions: in vivo
[33] = AUC/dose in C57BL/6 mouse at 1 mg/kg, iv by LC-MS/MS analysis; type: ADME, organism-based; conditions: in vivo
[34] = Volume of distribution at steady state in C57BL/6 mouse at 1 mg/kg, iv by LC-MS/MS analysis; type: ADME, organism-based; conditions: in vivo, read-out: Vdss
[35] = Terminal half life in cynomolgus monkey at 0.3 mg/kg, iv by LC-MS/MS analysis; type: ADME, organism-based, Macaca fascicularis; conditions: in vivo, read-out: beta t1/2 (converted)
Cytochrome P450 3A4 = Cytochrome P450 3A4 (Homo sapiens, UniProt P08684); assay: Inhibition of CYP3A4 (unknown origin); type: ADME
Sequence of Cytochrome P450 3A4 (P08684 whole entry): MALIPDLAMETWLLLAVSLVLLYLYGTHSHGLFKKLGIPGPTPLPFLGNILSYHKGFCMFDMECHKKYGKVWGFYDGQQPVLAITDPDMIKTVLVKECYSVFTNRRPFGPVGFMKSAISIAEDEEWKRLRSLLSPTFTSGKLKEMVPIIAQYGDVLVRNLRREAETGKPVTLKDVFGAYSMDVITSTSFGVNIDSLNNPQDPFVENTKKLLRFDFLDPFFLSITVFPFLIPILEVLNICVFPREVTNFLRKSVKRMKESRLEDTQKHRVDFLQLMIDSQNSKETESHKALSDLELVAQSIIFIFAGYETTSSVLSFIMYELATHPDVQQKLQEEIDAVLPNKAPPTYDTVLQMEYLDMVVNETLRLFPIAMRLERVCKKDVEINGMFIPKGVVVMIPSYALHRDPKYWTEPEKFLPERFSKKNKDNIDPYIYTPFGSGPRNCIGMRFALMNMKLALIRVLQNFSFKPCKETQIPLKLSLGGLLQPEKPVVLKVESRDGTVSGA

[36] = Tmax in C57BL/6 mouse at 5 mg/kg, po by LC-MS/MS analysis; type: ADME, organism-based; conditions: in vivo
[37] = AUC/dose in cynomolgus monkey at 1 mg/kg, po by LC-MS/MS analysis; type: ADME, organism-based, Macaca fascicularis; conditions: in vivo
[38] = Volume of distribution at steady state in beagle dog at 0.2 mg/kg, iv by LC-MS/MS analysis; type: ADME, organism-based, Canis lupus familiaris; conditions: in vivo, read-out: Vdss
Cytochrome P450 2C9 = Cytochrome P450 2C9 (Homo sapiens, UniProt P11712); assay: Inhibition of CYP2C9 (unknown origin); type: ADME
Sequence of Cytochrome P450 2C9 (P11712 whole entry): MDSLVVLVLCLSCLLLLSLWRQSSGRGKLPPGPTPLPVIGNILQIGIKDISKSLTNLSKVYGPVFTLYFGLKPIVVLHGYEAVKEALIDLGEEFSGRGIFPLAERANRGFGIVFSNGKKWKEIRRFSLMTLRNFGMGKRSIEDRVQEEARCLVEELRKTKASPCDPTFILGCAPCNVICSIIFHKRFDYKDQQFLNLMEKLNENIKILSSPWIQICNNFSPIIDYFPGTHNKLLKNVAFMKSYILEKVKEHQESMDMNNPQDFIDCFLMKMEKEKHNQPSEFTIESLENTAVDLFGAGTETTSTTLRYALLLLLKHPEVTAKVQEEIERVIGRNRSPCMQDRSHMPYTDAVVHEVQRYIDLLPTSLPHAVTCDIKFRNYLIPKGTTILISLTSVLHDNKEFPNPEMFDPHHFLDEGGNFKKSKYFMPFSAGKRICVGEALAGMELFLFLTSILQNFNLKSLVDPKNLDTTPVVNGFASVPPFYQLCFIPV

[39] = AUC/dose in Sprague-Dawley rat at 5 mg/kg, po by LC-MS/MS analysis; type: ADME, organism-based; conditions: in vivo
[40] = Protein binding in Sprague-Dawley rat plasma; type: ADME, cell-free; conditions: read-out: PPB (converted)
[41] = Volume of distribution at steady state in Sprague-Dawley rat at 1 mg/kg, iv by LC-MS/MS analysis; type: ADME, organism-based; conditions: in vivo, read-out: Vdss
[42] = AUC/dose in cynomolgus monkey at 0.3 mg/kg, iv by LC-MS/MS analysis; type: ADME, organism-based, Macaca fascicularis; conditions: in vivo
[43] = Cmax/dose in cynomolgus monkey at 1 mg/kg, po by LC-MS/MS analysis; type: ADME, organism-based, Macaca fascicularis; conditions: in vivo
Cytochrome P450 2D6 = Cytochrome P450 2D6 (Homo sapiens, UniProt P10635); assay: Inhibition of CYP2D6 (unknown origin); type: ADME
Sequence of Cytochrome P450 2D6 (P10635 whole entry): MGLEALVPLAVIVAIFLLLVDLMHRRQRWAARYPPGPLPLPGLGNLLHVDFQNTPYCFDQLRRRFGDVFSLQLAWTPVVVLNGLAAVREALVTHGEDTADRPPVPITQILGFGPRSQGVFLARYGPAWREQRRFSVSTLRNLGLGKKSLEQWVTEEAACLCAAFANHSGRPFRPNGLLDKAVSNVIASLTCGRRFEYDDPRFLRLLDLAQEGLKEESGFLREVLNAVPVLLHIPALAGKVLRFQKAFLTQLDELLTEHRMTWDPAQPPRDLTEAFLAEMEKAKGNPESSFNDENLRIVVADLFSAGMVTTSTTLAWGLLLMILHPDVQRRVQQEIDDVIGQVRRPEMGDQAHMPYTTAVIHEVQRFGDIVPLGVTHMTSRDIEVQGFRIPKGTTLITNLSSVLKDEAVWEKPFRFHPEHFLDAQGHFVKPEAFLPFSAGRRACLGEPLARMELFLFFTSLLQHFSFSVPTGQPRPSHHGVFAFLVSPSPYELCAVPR

[44] = Protein binding in C57BL/6 mouse plasma; type: ADME, cell-free; conditions: read-out: PPB (converted)
[45] = Tmax in beagle dog at 1 mg/kg, po by LC-MS/MS analysis; type: ADME, organism-based, Canis lupus familiaris; conditions: in vivo

## Nc1nc(N2CCC3(CC2)COC[C@H]3N)cnc1Sc1ccnc(N)c1Cl
Physchem [1]
  logD: 0.2
[2]
  IC50: 99 nM
KYSE-520 cell line; Homo sapiens, KYSE-520
  IC50: 665 nM
Physchem [3]
  logP: 1.1
Physchem [4]
  solubility: 787 µM (≈ 321 µg/mL)
[5]
  IC50: > 25000 nM

## C=C(F)C(=O)N1CCN(c2nc(OC[C@@H]3CCCN3C)nc3c2CCN(c2cccc4cccc(Cl)c24)C3)C[C@@H]1CC#N [ADAGRASIB]
MIA PaCa-2
  IC50: 100 nM

## Nc1nc(N2CCC3(CCC[C@H]3N)CC2)cnc1Sc1ccnc(N)c1Cl
Physchem [1]
  logD: -0.6
[2]
  IC50: 24 nM
KYSE-520 cell line; Homo sapiens, KYSE-520
  IC50: 123 nM
Physchem [3]
  logP: 2.2
Physchem [4]
  solubility: 561 µM (≈ 228 µg/mL)
[5]
  IC50: > 30000 nM

## CC1(N)CCN(c2cnc(-c3cccc(Cl)c3Cl)c(N)n2)CC1
[6]
  logP: 2.6
Physchem [1]
  logD: 0.92
[7]
  IC50: 4500 nM
[8]
  ΔTm: 7.5 °C
KYSE-520 cell line; Homo sapiens, KYSE-520
  IC50: 2500 nM
Physchem [4]
  solubility: 290 µM (≈ 102 µg/mL)

## C[C@H]1OCC2(CCN(c3cnc(Sc4ccnc(N)c4Cl)c(N)n3)CC2)[C@@H]1N
KYSE-520 cell line; kyse-520
  IC50: 740 nM
Physchem [4]
  solubility: 382 µM (≈ 161 µg/mL)

## CC1(N)CCN(c2cnc(Cc3cccc(Cl)c3Cl)c(N)n2)CC1
[9]
  IC50: 9900 nM

## Nc1nc(N2CCC3(CCC[C@H]3N)CC2)cnc1Sc1cccnc1C(F)(F)F
KYSE-520 cell line; Homo sapiens, KYSE-520
  IC50: 1160 nM

## C[C@@H]1OCC2(CCN(c3cnc(Sc4ccnc(N)c4Cl)c(N)n3)CC2)[C@@H]1N [BATOPROTAFIB]
[10]
  half-life: 9 h
[11]
  fraction unbound: 0.36
[12]
  Activity: Non-Toxic
[13]
  bioavailability: 100%
[14]
  bioavailability: 60%
[15]
  half-life: 2 h
[16]
  bioavailability: > 100%
Physchem [1]
  logD: 0.6
[17]
  bioavailability: 78%
[18]
  clearance: 6 mL/min/kg
[19]
  AUC/dose: 15854 nM·h
[20]
  AUC/dose: 1190 nM·h
[21]
  fraction unbound: 0.39
[22]
  Cmax/dose: 357 nM
[23]
  Cmax/dose: 657 nM
[24]
  half-life: 8 h
[7]
  IC50: 666000 nM
[25]
  clearance: 15 mL/min/kg
[26]
  Cmax/dose: 1207 nM
[27]
  Vd: 4 L/kg
[28]
  AUC/dose: 10690 nM·h
[29]
  Tmax: 2 h
[30]
  clearance: 4 mL/min/kg
[31]
  Tmax: 1 h
[32]
  AUC/dose: 2407 nM·h
[33]
  AUC/dose: 1530 nM·h
[34]
  Vd: 3 L/kg
KYSE-520 cell line; kyse-520
  IC50: 100 nM
[35]
  half-life: 9 h
Physchem [3]
  logP: 1.6
Cytochrome P450 3A4
  inhibition (INH): Not Active
[36]
  Tmax: 0.8 h
[37]
  AUC/dose: 3848 nM·h
[38]
  Vd: 3 L/kg
Cytochrome P450 2C9
  inhibition (INH): Not Active
[39]
  AUC/dose: 2483 nM·h
[40]
  fraction unbound: 0.19
[41]
  Vd: 7 L/kg
Physchem [4]
  solubility: 736 µM (≈ 311 µg/mL)
[42]
  AUC/dose: 6438 nM·h
[43]
  Cmax/dose: 286 nM
Cytochrome P450 2D6
  inhibition (INH): Not Active
[5]
  IC50: > 30000 nM
[44]
  fraction unbound: 0.24
[45]
  Tmax: 2 h

## CC1(N)CCN(c2cnc(Sc3cccc(Cl)c3Cl)c(N)n2)CC1
Physchem [1]
  logD: 1.1
[2]
  IC50: 195 nM
[7]
  IC50: 16200 nM
KYSE-520 cell line; kyse-520
  IC50: 4070 nM
Physchem [3]
  logP: 3.6
Physchem [4]
  solubility: 7 µM (≈ 2.69 µg/mL)
[5]
  IC50: 2800 nM

## CC1(CN)CCN(c2cnc(Sc3cccc(Cl)c3Cl)c(N)n2)CC1
Physchem [1]
  logD: 2.5
[9]
  IC50: 17 nM
[2]
  IC50: 88 nM
KYSE-520 cell line; kyse-520
  IC50: 2670 nM
Physchem [3]
  logP: 4.3
Physchem [4]
  solubility: 109 µM (≈ 43.4 µg/mL)
[5]
  IC50: 2400 nM

## CC1(N)CCN(c2cnc(Sc3cccnc3C(F)(F)F)c(N)n2)CC1
Physchem [1]
  logD: -0.5
[9]
  IC50: 67 nM
[2]
  IC50: 339 nM
Physchem [3]
  logP: 2
Physchem [4]
  solubility: 85 µM (≈ 32.7 µg/mL)
[5]
  IC50: 17400 nM
